Assays:
[1] = tested on: HCV genotype 1a wild-type transient replicon; test: genotype 1a wild-type transient replicon assay; assay type: cell-based, hepatitis C virus (HCV); conditions: Hepatitis C virus
[2] = tested on: HCV genotype 1b D168V variant transient replicon; test: genotype 1b D168V transient replicon assay; assay type: cell-based, hepatitis C virus (HCV); conditions: Hepatitis C virus
[3] = tested on: HCV genotype 1b wild-type transient replicon; test: genotype 1b wild-type transient replicon assay; assay type: cell-based, hepatitis C virus (HCV); conditions: Hepatitis C virus
[4] = tested on: HCV genotype 1b R155K variant transient replicon; test: genotype 1b R155K transient replicon assay; assay type: cell-based, hepatitis C virus (HCV); conditions: Hepatitis C virus
[5] = tested on: HCV genotype 3a Q168R variant transient replicon; test: genotype 3a Q168R transient replicon assay; assay type: cell-based, hepatitis C virus (HCV); conditions: Hepatitis C virus
[6] = tested on: HCV genotype 3a wild-type transient replicon; test: genotype 3a wild-type transient replicon assay; assay type: cell-based, hepatitis C virus (HCV); conditions: Hepatitis C virus
[7] = tested on: HCV genotype 3a S138T variant transient replicon; test: genotype 3a S138T transient replicon assay; assay type: cell-based, hepatitis C virus (HCV); conditions: Hepatitis C virus
[8] = tested on: HCV genotype 1a D168V variant transient replicon; test: genotype 1a D168V transient replicon assay; assay type: cell-based, hepatitis C virus (HCV); conditions: Hepatitis C virus
[9] = tested on: HCV genotype 3a wild-type stable replicon (chimeric, NS3 gene from genotype 3a isolates); test: genotype 3a wild-type stable replicon assay; assay type: cell-based, hepatitis C virus (HCV); conditions: Hepatitis C virus
[10] = tested on: HCV genotype 1a (1a-H77) stable subgenomic replicon; test: genotype 1a Huh-7 stable replicon assay (luciferase reporter); assay type: cell-based, hepatitis C virus (HCV); conditions: Hepatitis C virus, 5% FBS
[11] = tested on: HCV genotype 1a D168E variant transient replicon; test: genotype 1a D168E transient replicon assay; assay type: cell-based, hepatitis C virus (HCV); conditions: Hepatitis C virus
[12] = tested on: HCV genotype 1a R155K variant transient replicon; test: genotype 1a R155K transient replicon assay; assay type: cell-based, hepatitis C virus (HCV); conditions: Hepatitis C virus
[13] = tested on: HCV genotype 3a A166T variant transient replicon; test: genotype 3a A166T transient replicon assay; assay type: cell-based, hepatitis C virus (HCV); conditions: Hepatitis C virus
[14] = tested on: HCV genotype 1b Con1 stable subgenomic replicon; test: genotype 1b Con1 stable replicon assay (luciferase reporter); assay type: cell-based, hepatitis C virus (HCV); conditions: Hepatitis C virus
[15] = tested on: HCV R155K variants; conditions: Bartels 2008, Lu 2004, Zhou 2007; cited from earlier work
[16] = tested on: HCV; conditions: after R155K (danoprevir) or R155K/D168V (vaniprevir) variants detected; cited from earlier work

Structure (SMILES) | EC50 [1] [nM] | EC50 [2] [nM] | EC50 [3] [nM] | EC50 [4] [nM] | EC50 [5] [nM] | EC50 [6] [nM] | EC50 [7] [nM] | EC50 [8] [nM] | EC50 [9] [nM] | EC50 [10] [nM] | EC50 [11] [nM] | EC50 [12] [nM] | EC50 [13] [nM] | EC50 [14] [nM] | resistance conferred by R155K variants [15] | viral load in patients receiving treatment [16]
C=C[C@@H]1C[C@]1(NC(=O)[C@@H]1C[C@@H]2CN1C(=O)[C@H](C(C)(C)C)NC(=O)O[C@@H]1CCC[C@H]1OC/C=C/C(F)(F)c1nc3ccccc3nc1O2)C(=O)NS(=O)(=O)C1CC1 [Example 1] | 0.1 to 1 | < 1 | < 1 | < 1 | 100 to 1000 | 10 to 100 | 100 to 1000 | 1 to 10 | < 10 | < 1 | < 1 | 0.1 to 1 | 100 to 500 | 1 to 10 |  | 
CC(C)(C)OC(=O)N[C@H]1CCCCC/C=C\[C@@H]2C[C@@]2(C(=O)NS(=O)(=O)C2CC2)NC(=O)[C@@H]2C[C@@H](OC(=O)N3Cc4cccc(F)c4C3)CN2C1=O [danoprevir] |  |  |  |  |  |  |  |  |  |  |  |  |  |  | high-level resistance | Viral load rebound
CC(C)(C)[C@@H]1NC(=O)O[C@@H]2CCC[C@H]2OC/C=C/C(F)(F)c2nc3ccccc3nc2O[C@@H]2C[C@@H](C(=O)N[C@]3(C(=O)NS(=O)(=O)C4(C)CC4)C[C@H]3C(F)F)N(C2)C1=O [Example 6] | < 0.1 | < 1 | < 1 | < 1 | < 100 | < 10 | < 100 | < 1 | < 10 | < 1 | < 1 | < 0.1 | < 100 | 1 to 10 |  | 
CC[C@@H]1C[C@]1(NC(=O)[C@@H]1C[C@@H]2CN1C(=O)[C@H](C(C)(C)C)NC(=O)O[C@@H]1CCC[C@H]1OC/C=C/C(F)(F)c1nc3ccccc3nc1O2)C(=O)NS(=O)(=O)C1(C)CC1 [Example 8] | 0.1 to 1 | 1 to 100 | < 1 | < 1 | 100 to 1000 | 10 to 100 | 100 to 1000 | 1 to 10 |  | < 1 | < 1 | < 0.1 | 100 to 500 | 1 to 10 |  | 
CC[C@@H]1C[C@]1(NC(=O)[C@@H]1C[C@@H]2CN1C(=O)[C@H](C(C)(C)C)NC(=O)OCC(C)(C)CCCCc1cccc3c1CN(C3)C(=O)O2)C(=O)NS(=O)(=O)C1CC1 [vaniprevir] |  |  |  |  |  |  |  |  |  |  |  |  |  |  |  | viral load rebound
COc1ccc2c(O[C@@H]3C[C@H]4C(=O)N[C@]5(C(=O)O)C[C@H]5/C=C\CCCCC[C@H](NC(=O)OC5CCCC5)C(=O)N4C3)cc(-c3csc(NC(C)C)n3)nc2c1 [BILN 2061] |  |  |  |  |  |  |  |  |  |  |  |  |  |  | high-level resistance | 
CC(C)(C)[C@@H]1NC(=O)O[C@@H]2CCC[C@H]2OC/C=C/C(F)(F)c2nc3ccccc3nc2O[C@@H]2C[C@@H](C(=O)N[C@]3(C(=O)NS(=O)(=O)C4CC4)C[C@H]3C(F)F)N(C2)C1=O [Example 2] | 0.1 to 1 | 1 to 100 | < 1 | < 1 | 100 to 1000 | < 10 | 100 to 1000 | < 1 | < 10 | 1 to 10 | < 1 | < 0.1 | < 100 | 1 to 10 |  | 
CC[C@@H]1C[C@]1(NC(=O)[C@@H]1C[C@@H]2CN1C(=O)[C@H](C(C)(C)C)NC(=O)O[C@@H]1CCC[C@H]1OC/C=C/C(F)(F)c1nc3ccccc3nc1O2)C(=O)NS(=O)(=O)C1CC1 [Example 4] | 0.1 to 1 | 1 to 100 | < 1 | < 1 | 100 to 1000 | 10 to 100 | 100 to 1000 | 10 to 1000 |  | < 1 | < 1 | 0.1 to 1 | 100 to 500 | 1 to 10 |  | 
C=C[C@@H]1C[C@]1(NC(=O)[C@@H]1C[C@@H]2CN1C(=O)[C@H](C(C)(C)C)NC(=O)O[C@@H]1CCC[C@H]1OC/C=C/C(F)(F)c1nc3ccccc3nc1O2)C(=O)NS(=O)(=O)C1(C)CC1 [Example 5] | < 0.1 | < 1 | < 1 | < 1 | < 100 | < 10 |  | < 1 | < 10 | < 1 | < 1 | < 0.1 | < 100 | 1 to 10 |  | 

From US8648037B2, “Macrocyclic proline derived HCV serine protease inhibitors” (priority 2010, dated 2014)
